Assay results as given in US20150105252A1, “SUBSTITUTED PYRAZOLES AS HERBICIDES” (E I DU PONT DE NEMOURS AND COMPANY, priority 2013, published 2015).

Columns and labels:
kochia = assay: Test A preemergence; type: in vivo, Kochia scoparia
Method in brief: (§1)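 Scoring was visual, on a scale where 100 means complete control and 0 means no effect, comparing treated with untreated plants around 10 days post-application. Compounds in surfactant-containing non-phytotoxic solvent were sprayed onto soil preemergence or onto one- to two-leaf seedlings (2–10 cm) postemergence.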

Italian ryegrass = assay: Test A postemergence; type: in vivo, Lolium multiflorum
Method in brief: as §1

galium = assay: Test A postemergence; type: in vivo, Galium aparine
Method in brief: as §1

[1] = 125 g ai/ha, visual injury, 0 to 100 scale, approx. 10 days
[2] = 500 g ai/ha, visual injury after approx. 10 days, 0 to 100 scale (0 no effect, 100 complete control)
[3] = Postemergence, 500 g ai/ha, 0 to 100 scale (0 no effect, 100 complete control)
[4] = postemergence, 125 g ai/ha, about 10 days, visual rating on 0 to 100 scale (0 no effect, 100 complete control)
[5] = Postemergence, 125 g ai/ha, 0 to 100 scale, 0 no effect, 100 complete control

Row | SMILES | Kochia plant response rating (kochia; [1]) | Kochia plant response rating (kochia; [2]) | Italian Ryegrass plant response rating (Italian ryegrass; [3]) | Italian Ryegrass plant response rating (Italian ryegrass; [4]) | Galium plant response rating (galium; [3]) | Galium plant response rating (galium; [4]) | Kochia plant response rating (0 to 100 scale) (kochia; 125 g ai/ha, visual injury approx. 10 days after treatment) | Italian Ryegrass plant response rating (Italian ryegrass; [5]) | Galium plant response rating (galium; [5])
1 | CCONC(=O)c1cc(CC)n(Cc2cc(C(F)(F)F)no2)n1 [Compound 125] | 40 | 100 | 80 | 20 | 90 | 60 | – | – | –
2 | CCOc1cc(C(=O)NC2CC2)nn1Cc1ccnc(OC(F)F)c1 [Compound 133] | 100 | 100 | 80 | 60 | 90 | 80 | – | – | –
3 | CCc1cc(C(=O)NCC(F)(F)F)nn1Cc1cc(OC(F)F)nn1C [Compound 206] | – | – | 50 | – | 80 | – | 50 | 0 | 20
